# Experiments:
# plasmin (pig) = plasmin (pig) (Sus scrofa, UniProt P06867); assay: Km, Vmax and Vmax/Km of substrates for plasmin (pig); assay type: biochemical, Porcine (pig); conditions: for Vmax (× 10^-7): TABLE 2, CHA substrates, plasmin (pig), 2,6-xylenol 615 nm
# Thrombin (TH) = Thrombin (TH) (Bos taurus, UniProt P00735); assay type: biochemical, Cow; conditions: pH 8.4, 37° C., 10 minutes, 1.0 NIH/ml; for Selectivity TH, absorbance (O.D.) at 645 nm: TABLE 4, CHA substrates, So = 0.54
# Experimental: (§1) The specificities of the novelly synthesized substrates were tested by reacting them with various enzymes respectively.
# (§2) (1) Substrate solution concentration: 35 mmole/liter H2 O
# (§3) (2) Buffer: Tris-hydrochloric acid buffer 50 mmole/l, NaCl 150 mmole/l (0.875%) was employed, and the pH for reaction was as follows depending on the enzyme.
# (§4) 2,6-Xylenol 7.0 mmole+NaIO4 1.5 mmole/0.2N KOH
# (§5) 0.5 ml of the buffer solution and 0.05 ml of the enzyme reagent were taken into a silicon-treated hard glass test tube or a plastic test tube, and preheated in a constant temperature bath at 37° C. for 5 minutes. Thereafter, 0.1 ml of the substrate solution was added to effect the enzymatic reaction at 37° C. for 10 minutes. Exactly after 10 minutes, 2.5 ml of the reaction terminating solution or the terminating and color developing reagent solution was added to terminate the enzymatic reaction, and after allowing to stand at 25° C. for 10 minutes, the absorbance at 405 nm or 645 nm was measured, in which [drawing 49]
# Plasmin (PL) = Plasmin (PL) (Sus scrofa, UniProt P06867); assay type: biochemical, Pig; conditions: pH 7.4, 37° C., 10 minutes, 0.32 CU/ml; for Selectivity PL, absorbance (O.D.) at 645 nm: TABLE 4, CHA substrates, So = 0.54
# Sequence of Plasmin (PL) (P06867 97-809): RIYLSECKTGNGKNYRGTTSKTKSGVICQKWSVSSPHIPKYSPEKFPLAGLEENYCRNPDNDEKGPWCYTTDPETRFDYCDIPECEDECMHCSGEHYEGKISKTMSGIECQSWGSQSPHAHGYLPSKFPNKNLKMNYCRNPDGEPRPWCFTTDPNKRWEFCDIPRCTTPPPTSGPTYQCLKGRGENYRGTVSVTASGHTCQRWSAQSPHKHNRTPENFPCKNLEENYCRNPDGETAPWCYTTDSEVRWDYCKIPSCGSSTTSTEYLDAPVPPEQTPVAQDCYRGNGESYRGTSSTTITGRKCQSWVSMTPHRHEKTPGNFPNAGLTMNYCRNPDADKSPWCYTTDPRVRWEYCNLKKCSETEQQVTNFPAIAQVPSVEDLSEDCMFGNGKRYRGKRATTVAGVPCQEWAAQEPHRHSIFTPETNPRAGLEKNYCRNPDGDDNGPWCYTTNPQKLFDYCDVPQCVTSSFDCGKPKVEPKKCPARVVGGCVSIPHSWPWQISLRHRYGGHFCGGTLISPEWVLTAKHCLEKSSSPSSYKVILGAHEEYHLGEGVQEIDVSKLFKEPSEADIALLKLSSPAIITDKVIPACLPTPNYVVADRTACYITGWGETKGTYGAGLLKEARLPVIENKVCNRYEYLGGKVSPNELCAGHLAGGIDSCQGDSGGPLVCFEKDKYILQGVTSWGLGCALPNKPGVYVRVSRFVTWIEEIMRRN
# Kallikrein (KL) = Kallikrein (KL) (Sus scrofa, UniProt P00752); assay type: biochemical, Pig; conditions: pH 7.9, 37° C., 10 minutes, 1.0 BAEE-U/ml; for Selectivity KL, absorbance (O.D.) at 645 nm: TABLE 4, CHA substrates, So = 0.54
# Sequence of Kallikrein (KL) (P00752 8-246): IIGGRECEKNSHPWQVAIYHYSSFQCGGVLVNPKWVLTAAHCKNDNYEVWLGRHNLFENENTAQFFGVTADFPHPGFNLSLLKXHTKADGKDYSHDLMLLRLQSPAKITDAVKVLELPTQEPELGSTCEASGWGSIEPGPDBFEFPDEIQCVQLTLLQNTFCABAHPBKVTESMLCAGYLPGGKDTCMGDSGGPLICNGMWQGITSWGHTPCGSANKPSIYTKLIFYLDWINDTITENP
# Experimental: as §1, §2, §3, §4, §5
# Factor-Xa (FXa) = Factor-Xa (FXa) (Bos taurus, UniProt P00743); assay type: biochemical, Cow; conditions: pH 8.4, 37° C., 10 minutes, 0.4 U/ml; for Selectivity FXa, absorbance (O.D.) at 645 nm: TABLE 4, CHA substrates, So = 0.54
# Sequence of Factor-Xa (FXa) (P00743 41-180): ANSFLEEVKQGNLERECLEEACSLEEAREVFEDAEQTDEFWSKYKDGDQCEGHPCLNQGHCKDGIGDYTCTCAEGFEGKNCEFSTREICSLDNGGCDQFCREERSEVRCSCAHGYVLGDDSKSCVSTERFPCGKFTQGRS
# Sequence of Factor-Xa (FXa) (P00743 234-492): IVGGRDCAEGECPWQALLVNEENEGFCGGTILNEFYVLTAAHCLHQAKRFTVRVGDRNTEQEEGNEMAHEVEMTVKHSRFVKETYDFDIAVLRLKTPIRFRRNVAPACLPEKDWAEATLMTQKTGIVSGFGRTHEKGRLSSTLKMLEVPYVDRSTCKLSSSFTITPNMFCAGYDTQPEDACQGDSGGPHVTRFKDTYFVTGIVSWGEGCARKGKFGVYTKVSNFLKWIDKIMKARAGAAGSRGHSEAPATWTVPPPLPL
# Experimental: as §1, §2, §3, §4, §5
# Urokinase (UK) = Urokinase (UK) (Homo sapiens, UniProt P00749); assay type: biochemical; conditions: pH 8.2, 37° C., 10 minutes, 1000 IU/ml; for Selectivity UK, absorbance (O.D.) at 645 nm: TABLE 4, CHA substrates, So = 0.54
# Experimental: as §1, §2, §3, §4, §5
# [1] = TABLE 2, V/Km of each sample divided by that of S2251 (so in the source)
# [2] = TABLE 3, PNA substrates, So = 0.54 mmole/l
# Sequence of plasmin (pig) (P06867 97-809): as the sequence (P06867 97-809) above
# Sequence of Thrombin (TH) (P00735 44-625): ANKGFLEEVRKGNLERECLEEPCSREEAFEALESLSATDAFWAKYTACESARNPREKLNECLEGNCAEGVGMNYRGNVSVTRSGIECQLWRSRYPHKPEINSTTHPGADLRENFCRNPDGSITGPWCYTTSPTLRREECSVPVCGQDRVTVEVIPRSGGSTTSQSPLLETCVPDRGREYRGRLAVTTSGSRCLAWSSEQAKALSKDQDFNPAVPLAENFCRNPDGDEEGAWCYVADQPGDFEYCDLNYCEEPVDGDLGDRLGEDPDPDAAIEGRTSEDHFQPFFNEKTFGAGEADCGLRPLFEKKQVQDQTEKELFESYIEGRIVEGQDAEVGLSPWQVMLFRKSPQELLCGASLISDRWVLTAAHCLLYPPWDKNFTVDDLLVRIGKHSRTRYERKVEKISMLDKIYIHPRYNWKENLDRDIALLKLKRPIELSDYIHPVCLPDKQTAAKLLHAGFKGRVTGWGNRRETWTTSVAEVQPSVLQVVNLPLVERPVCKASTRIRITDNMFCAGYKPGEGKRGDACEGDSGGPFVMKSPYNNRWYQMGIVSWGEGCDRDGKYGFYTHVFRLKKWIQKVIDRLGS
SMILES,Vmax (× 10^-7) (plasmin (pig)),Relative ratio (plasmin (pig); [1]),"Selectivity TH, absorbance (O.D.) at 645 nm (Thrombin (TH)) [O.D.]","Selectivity PL, absorbance (O.D.) at 645 nm (Plasmin (PL)) [O.D.]","Selectivity KL, absorbance (O.D.) at 645 nm (Kallikrein (KL)) [O.D.]","Selectivity FXa, absorbance (O.D.) at 645 nm (Factor-Xa (FXa)) [O.D.]","Selectivity UK, absorbance (O.D.) at 645 nm (Urokinase (UK)) [O.D.]","Vmax (× 10^7) (plasmin (pig); TABLE 1, PNA substrates, plasmin (pig), 405 nm)","Relative ratio (plasmin (pig); TABLE 1, V/Km of each sample divided by that of S2251)","Selectivity TH, absorbance (O.D.) at 405 nm (Thrombin (TH); [2]) [O.D.]","Selectivity PL, absorbance (O.D.) at 405 nm (Plasmin (PL); [2]) [O.D.]","Selectivity KL, absorbance (O.D.) at 405 nm (Kallikrein (KL); [2]) [O.D.]","Selectivity FXa, absorbance (O.D.) at 405 nm (Factor-Xa (FXa); [2]) [O.D.]","Selectivity UK, absorbance (O.D.) at 405 nm (Urokinase (UK); [2]) [O.D.]"
"Cc1ccc(S(=O)(=O)NCCCC[C@@H](N)C(=O)N[C@@H](Cc2ccccc2)C(=O)N[C@@H](CCCCN)C(=O)Nc2ccc(O)c(C(=O)O)c2)cc1 [NPC-7, 2HCl.H-D-Lys(ToS)-L-Phe-L-Lys-CHA]",29.417 × 10^-7,128.468,0,0.420,0.007,0.001,0,,,,,,,
CC(C)OC(=O)C[C@@H](N)C(=O)N[C@@H](Cc1ccccc1)C(=O)N[C@@H](CCCCN)C(=O)Nc1ccc(O)c(C(=O)O)c1 [NPC-21],6.802 × 10^-7,17.414,0,0.093,0.010,0.003,0.004,,,,,,,
"Cc1cc(C)c(S(=O)(=O)NCCCC[C@@H](N)C(=O)N[C@@H](Cc2ccccc2)C(=O)N[C@@H](CCCCN)C(=O)Nc2ccc(O)c(C(=O)O)c2)c(C)c1 [NPC-10, HD-Lys(Mst)PheLysCHA.2HCl]",28.445 × 10^-7,94.369,0,0.344,0.010,0.002,0.001,,,,,,,
"Cc1ccc(S(=O)(=O)NCCCC[C@@H](N)C(=O)N[C@@H](CC(C)C)C(=O)N[C@@H](CCCCN)C(=O)Nc2ccc(O)c(C(=O)O)c2)cc1 [NPC-12, HD-Lys(Tos)LeuLysCHA.2HBr]",25.679 × 10^-7,23.135,0.001,0.051,0.007,0.002,0.001,,,,,,,
Cc1ccc(CCNC(=O)CC[C@@H](N)C(=O)N[C@@H](Cc2ccccc2)C(=O)N[C@@H](CCCCN)C(=O)Nc2ccc([N+](=O)[O-])cc2)cc1 [NPN-7],,,,,,,,20.908 × 10^7,4.638,0.001,0.427,0.011,0.008,0.002
NCCCC[C@H](NC(=O)[C@H](Cc1ccccc1)NC(=O)[C@H](N)CCCCNS(=O)(=O)c1cccc2ccccc12)C(=O)Nc1ccc(O)c(C(=O)O)c1 [NPC-17],15.803 × 10^-7,23.874,0,0.192,0.002,0,0,,,,,,,
CCCC(=O)NCCCC[C@@H](N)C(=O)N[C@@H](Cc1ccccc1)C(=O)N[C@@H](CCCCN)C(=O)Nc1ccc(O)c(C(=O)O)c1 [NPC-19],8.266 × 10^-7,31.117,0.001,0.118,0.004,0.002,0.001,,,,,,,
NCCCC[C@H](NC(=O)[C@H](Cc1ccccc1)NC(=O)[C@H](N)CCC(=O)NCCc1ccccc1)C(=O)Nc1ccc(O)c(C(=O)O)c1 [NPC-23],18.963 × 10^-7,43.045,0,0.223,0.009,0.005,0.004,,,,,,,
"NCCCC[C@H](NC(=O)[C@H](Cc1ccccc1)NC(=O)[C@H](N)CCCCNS(=O)(=O)c1ccc2ccccc2c1)C(=O)Nc1ccc(O)c(C(=O)O)c1 [NPC-8, HD-Lys(NaS)PheLysCHA.2HCl]",30.814 × 10^-7,154.748,0,0.498,0.011,0.002,0.002,,,,,,,
"Cc1ccc(S(=O)(=O)NCCCC[C@H](N)C(=O)N[C@@H](Cc2ccccc2)C(=O)N[C@@H](CCCCN)C(=O)Nc2ccc(O)c(C(=O)O)c2)cc1 [NPC-5, HL-Lys(Tos)PheLysCHA.2HCl]",3.159 × 10^-7,9.739,0,0.051,0.001,0.002,0,,,,,,,
"CC(C)[C@@H](N)C(=O)N[C@@H](Cc1ccccc1)C(=O)N[C@@H](CCCCN)C(=O)Nc1ccc(O)c(C(=O)O)c1 [NPC-2, HD-ValPheLysCHA.2HCl]",8.266 × 10^-7,11.811,0.002,0.090,0.006,0.004,0.002,,,,,,,
"Cc1ccc(S(=O)(=O)Oc2ccc(C[C@@H](N)C(=O)N[C@@H](CC(C)C)C(=O)N[C@@H](CCCCN)C(=O)Nc3ccc(O)c(C(=O)O)c3)cc2)cc1 [NPC-13, HD-Tyr(Tos)LeuLysCHA.2HCl]",17.991 × 10^-7,11.225,0.002,0.041,0.004,0.001,0.001,,,,,,,
